Consider 59 compounds from patent publication US20260193236A1 (Protego Biopharma, Inc., priority 2022, published 2026).

The assay concerns IRE1-XBP1s (XBP1-RLuc splicing reporter in HEK293 T-REx cells). Put plainly: IRE1-XBP1s activation assay (XBP1-RLuc splicing reporter, HEK293 T-REx cells, luminescence relative to thapsigargin). In kind it is cell-based. Conditions: 18 h, compound 10 μM, HEK293 T-REx XBP1-RLuc reporter cells, relative to thapsigargin (Tg) 500 nM, read-out: Activity (IRE1-XBP1s activation, luminescence as % signal relative to thapsigargin, % Tg). As to the method: IRE1-XBP1s activation Assay: HEK293 T-REx cells stably expressing the XBP1-RLuc splicing reporter were treated with an IRE1-XBP1s activator provided herein (10 μM) in the presence or absence of the IRE1 active site inhibitor 4μ8C (32 μM) for 18 h. Luminescence was shown as the percentage signal relative to thapsigargin (Tg) (500 nM, 18 h).

Turning to `Cc1ccc(OCCN(C)C(=O)Cn2cc(NC(=O)CCNc3cnc(C#N)c(F)c3)cn2)cc1` [Compound 177], the activation at 10 µM fell in the range of 30 to 50%.
As for `Cc1ccc(OCCN(C)C(=O)Cn2cc(NC(=O)CCNc3ccc(Cl)nc3)cn2)cc1` [Compound 178], the activation at 10 µM is 30 to 50%.
Take `Cc1ccc(OCCN(C)C(=O)Cn2cc(NC(=O)CCNc3cnc(F)cc3C)cn2)cc1` [Compound 179]: the activation at 10 µM was over 50%.
The same measure for `Cc1ccc(OCCN(C)C(=O)Cn2cc(NC(=O)CCNc3cncc(C)c3)cn2)cc1` [Compound 180]: 30 to 50%; for `Cc1ccc(OCCN(C)C(=O)Cn2cc(NC(=O)CCNc3ccc(C)nc3F)cn2)cc1` [Compound 181]: under 30%.
The same measure for `Cc1ccc(OCCN(C)C(=O)Cn2cc(NC(=O)CCNc3ccncc3Cl)cn2)cc1` [Compound 182]: over 50%; for `COc1ncc(Cl)cc1NCCC(=O)Nc1cnn(CC(=O)N(C)CCOc2ccc(C)cc2)c1` [Compound 183]: under 30%.
With `Cc1ccc(OCCN(C)C(=O)Cn2cc(NC(=O)CCNc3cnc(F)c(Cl)c3)cn2)cc1` [Compound 184], the activation at 10 µM was over 50%.
Turning to `Cc1ccc(OCCN(C)C(=O)Cn2cc(NC(=O)CCNc3cncc(C(F)(F)F)n3)cn2)cc1` [Compound 185], the activation at 10 µM is under 30%.
Under `Cc1ccc(OCCN(C)C(=O)Cn2cc(NC(=O)CCNc3cccnc3C(F)(F)F)cn2)cc1` [Compound 186] stands over 50%.
On to `COc1ncc(C(F)(F)F)cc1NCCC(=O)Nc1cnn(CC(=O)N(C)CCOc2ccc(C)cc2)c1` [Compound 187], for which the activation at 10 µM was 30 to 50%.
As to `COc1cccc(NCCC(=O)Nc2cnn(CC(=O)N(C)CCOc3ccc(C)cc3)c2)n1` [Compound 188], the activation at 10 µM is under 30%.
The same measure for `Cc1ccc(OCCN(C)C(=O)Cn2cc(NC(=O)CCNc3cccnc3F)cn2)cc1` [Compound 189]: under 30%.
Turning to `Cc1ccc(OCCN(C)C(=O)Cn2cc(NC(=O)CCNc3ccnc(F)c3Cl)cn2)cc1` [Compound 190], the activation at 10 µM was under 30%.
In the case of `CCOc1cc(NCCC(=O)Nc2cnn(CC(=O)N(C)CCOc3ccc(C)cc3)c2)ccn1` [Compound 191], the activation at 10 µM is under 30%.
The same measure for `Cc1ccc(OCCN(C)C(=O)Cn2cc(NC(=O)CCNc3ccncc3F)cn2)cc1` [Compound 192]: over 50%; for `Cc1ccc(OCCN(C)C(=O)Cn2cc(NC(=O)CCNc3ncc(F)cn3)cn2)cc1` [Compound 193]: 30 to 50%; for `Cc1ccc(OCCN(C)C(=O)Cn2cc(NC(=O)CCNc3cc(C)cnc3F)cn2)cc1` [Compound 194]: under 30%.
For `Cc1ccc(OCCN(C)C(=O)Cn2cc(NC(=O)CCNc3ncc(C)cc3C)cn2)cc1` [Compound 195], the activation at 10 µM was under 30%.
Under `Cc1ccc(OCCN(C)C(=O)Cn2cc(NC(=O)CCNc3ccc(F)nc3C)cn2)cc1` [Compound 196] stands over 50%; under `COc1ccc(NCCC(=O)Nc2cnn(CC(=O)N(C)CCOc3ccc(C)cc3)c2)c(C)n1` [Compound 197], 30 to 50%.
Under `COc1cnccc1NCCC(=O)Nc1cnn(CC(=O)N(C)CCOc2ccc(C)cc2)c1` [Compound 198] stands under 30%; under `Cc1ccc(OCCN(C)C(=O)Cn2cc(NC(=O)CCNc3ccnc4ncnn34)cn2)cc1` [Compound 200], under 30%.
Under `Cc1ccc(OCCN(C)C(=O)Cn2cc(NC(=O)OC3CCCN(c4ccnc(F)n4)C3)cn2)cc1` (centres unmarked) [Compound 201] stands under 30%; under `Cc1ccc(OCCN(C)C(=O)Cn2cc(NC(=O)CCNc3cc(N)ccn3)cn2)cc1` [Compound 202], over 50%; under `Cc1ncccc1NCCC(=O)Nc1cnn(CC(=O)N(C)CCOc2ccc(C(F)(F)F)cc2)c1` [Compound 204], under 30%.
`Cc1ccc(OCCN(C)C(=O)Cn2cc(NC(=O)CCOc3ccc(N)cn3)cn2)cc1` [Compound 205]: the activation at 10 µM was over 50%.
For `Cc1ccc(OCCN(C)C(=O)Cn2cc(NC(=O)CCNc3ncc(F)cc3C)cn2)cc1` [Compound 206], the activation at 10 µM was over 50%.
`Cc1ccc(OCCN(C)C(=O)Cn2cc(NC(=O)CCNc3cc(C)ncc3F)cn2)cc1` [Compound 207]: the activation at 10 µM was under 30%.
With `Cc1ccc(OCCN(C)C(=O)Cn2cc(NC(=O)CCNc3ccnc(C)c3F)cn2)cc1` [Compound 209], the activation at 10 µM is under 30%.
For the compound `Cc1ccc(OCCN(C)C(=O)Cn2cc(NC(=O)CCNc3nc(C)ncc3C(C)C)cn2)cc1` [Compound 210], the activation at 10 µM was over 50%.
Turning to `CNC(=O)c1cnc(NCCC(=O)Nc2cnn(CC(=O)N(C)CCOc3ccc(C)cc3)c2)nc1` [Compound 211], the activation at 10 µM was under 30%.
Under `Cc1ccc(OCCN(C)C(=O)Cn2cc(NC(=O)CCNc3cnc(C)nc3)cn2)cc1` [Compound 212] stands under 30%; under `CN(CCOc1ccc(C(F)(F)F)cn1)C(=O)Cn1cc(NC(=O)CCNc2c(F)cncc2Cl)cn1` [Compound 213], over 50%.
As to `Cc1ccc(OCCN(C)C(=O)Cn2cc(NC(=O)CCNc3c(F)cnc(C)c3C3CC3)cn2)cc1` [Compound 214], the activation at 10 µM is over 50%.
In the case of `Cc1ccc(OCCN(C)C(=O)Cn2cc(NC(=O)CCNc3c(F)cnc(C)c3C)cn2)cc1` [Compound 215], the activation at 10 µM was over 50%.
Under `CNc1ccnc(OCCC(=O)Nc2cnn(CC(=O)N(C)CCOc3ccc(C)cc3)c2)n1` [Compound 216] stands under 30%.
Turning to `Cc1ccc(OCCN(C)C(=O)Cn2cc(NC(=O)CC(C)(C)Nc3ccnc(F)n3)cn2)cc1` [Compound 217, 3-((2-fluoropyrimidin-4-yl)amino)-3-methyl-N-(1-(2-(methyl(2-(p-tolyloxy)ethyl)amino)-2-oxoethyl)-1H-pyrazol-4-yl)butanamide], the activation at 10 µM was under 30%.
Consider `Cc1ccc(OCCN(C)C(=O)Cn2cc(NC(=O)CC(C)(C)Nc3nccc(F)n3)cn2)cc1` [Compound 218, 3-((4-fluoropyrimidin-2-yl)amino)-3-methyl-N-(1-(2-(methyl(2-(p-tolyloxy)ethyl)amino)-2-oxoethyl)-1H-pyrazol-4-yl)butanamide], for which the activation at 10 µM is over 50%.
With `Cc1ccc(OCCN(C)C(=O)Cn2cc(NC(=O)C(CNc3ccc(F)nc3C)C3CCCCC3)cn2)cc1` (centres unmarked) [Compound 219], the activation at 10 µM lay in the range of 30 to 50%.
Turning to `Cc1ccc(OCCN(C)C(=O)Cn2cc(NC(=O)[C@@H](C)CNc3ccc(F)nc3C)cn2)cc1` [Compound 220], the activation at 10 µM was 30 to 50%.
For `Cc1ccc(OCCN(C)C(=O)Cn2cc(NC(=O)C(C)(C)CNc3ccc(F)nc3C)cn2)cc1` [Compound 221], the activation at 10 µM was under 30%.
For `[2H]C([2H])([2H])c1ccc(OCCN(C)C(=O)Cn2cc(NC(=O)CCNc3ccnc(F)n3)cn2)cc1` [Compound 222], the activation at 10 µM was over 50%.
For `Cc1ccc(OCCN(C)C(=O)Cn2cc(NC(=O)[C@@H](C)CNc3nccc(F)n3)cn2)cc1` [Compound 223], the activation at 10 µM is over 50%.
Under `Cc1ccc(OCCN(C)C(=O)Cn2cc(NC(=O)[C@@H](C)CNc3ccnc(F)n3)cn2)cc1` [Compound 224] stands over 50%.
Turning to `Cc1ccc(OCCN(C)C(=O)Cn2cc(NC(=O)[C@H](C)CNc3ccnc(F)n3)cn2)cc1` [Compound 225], the activation at 10 µM lay in the range of 30 to 50%.
Turning to `Cc1ccc(OCCN(C)C(=O)Cn2cc(NC(=O)CCNc3cc(Cl)nc4nccn34)cn2)cc1` [Compound 226], the activation at 10 µM was under 30%.
`Cc1ccc(OCCN(C)C(=O)Cn2cc(NC(=O)CCNc3ccnc4nccn34)cn2)cc1` [Compound 227]: the activation at 10 µM was under 30%.
As to `Cc1ccc(OCCN(C)C(=O)Cn2cc(NC(=O)CCNc3c(F)cncc3C=O)cn2)cc1` [Compound 230, 3-((3-fluoro-5-formylpyridin-4-yl)amino)-N-(1-(2-(methyl(2-(p-tolyloxy)ethyl)amino)-2-oxoethyl)-1H-pyrazol-4-yl)propanamide], the activation at 10 µM was over 50%.
On to `Cc1ccc(OCCN(C)C(=O)Cn2cc(NC(=O)CCNc3c(F)cncc3C(C)C)cn2)cc1` [Compound 231], for which the activation at 10 µM is over 50%.
Turning to `CC(=O)c1cncc(F)c1NCCC(=O)Nc1cnn(CC(=O)N(C)CCOc2ccc(C)cc2)c1` [Compound 232], the activation at 10 µM is over 50%.
Under `Cc1ccc(OCCN(C)C(=O)Cn2cc(NC(=O)CCOc3cccnc3N)cn2)cc1` [Compound 233] stands over 50%; under `C#CCCC1(CCC(=O)Nc2ccc(OCCC(=O)Nc3cnn(CC(=O)N(C)CCOc4ccc(C)cc4)c3)nc2)N=N1` [Compound 234], over 50%; under `Cc1ccc(OCCN(C)C(=O)Cn2cc(NC(=O)CCOc3cncc(N)c3)cn2)cc1` [Compound 235], under 30%.
As for `C#CCCC1(CCC(=O)Nc2cncc(OCCC(=O)Nc3cnn(CC(=O)N(C)CCOc4ccc(C)cc4)c3)c2)N=N1` [Compound 236], the activation at 10 µM is under 30%.
As to `Cc1ccc(OCCN(C)C(=O)Cn2cc(NC(=O)/C=C/Oc3cccnc3N)cn2)cc1` [Compound 237], the activation at 10 µM was under 30%.
As to `Cc1nc(F)ccc1NCCC(=O)Nc1cnn(CC(=O)N(C)CCOc2cnn(C)c2)c1` [Compound 238, 3-[(6-fluoro-2-methyl-3-pyridyl)amino]-N-[1-[2-[methyl-[2-(1-methylpyrazol-4-yl)oxyethyl]amino]-2-oxo-ethyl]pyrazol-4-yl]propanamide], the activation at 10 µM was under 30%.
For `Cc1ccc2nc(OCCN(C)C(=O)Cn3cc(NC(=O)CCNc4ccc(F)nc4C)cn3)sc2c1` [Compound 239], the activation at 10 µM was under 30%.
Turning to `Cc1cnc(OCCN(C)C(=O)Cn2cc(NC(=O)CCNc3ccc(F)nc3C)cn2)cn1` [Compound 240], the activation at 10 µM was under 30%.
